Data published in patent publication US20090088574A1, “CRYSTAL OF 1,2-DIHYDROPYRIDINE COMPOUND (TYPE IV)” (EISAI R&D MANAGEMENT CO., LTD., priority 2005, published 2009).

Legend:
[1] = Physical stability in mixing operation in the presence of water or water-ethanol (1:1) mixed solution (powder X-ray diffraction before/after); type: physicochemical; conditions: mixing in agate mortar at room temperature for a few minutes with dropwise water or water-ethanol (1:1) mixed solution, dried at about 60° C. for 2 to 3 hours
Experimental: Physical Stability in Mixing Operation in the Presence of Water or Water-Ethanol (1:1) Mixed Solution
About 60 to 150 mg of crystals obtained in Reference Example A1 (Anhydrous form II) and crystals obtained in Example 1 (Crystal form IV) were placed in an agate mortar, and the mixing operation was carried out at room temperature for a few minutes while the dropwise addition of water (or water-ethanol (1:1) mixed solution) continues. Subsequently, the crystals were dried at about 60° C. for 2 to 3 hours. The powder X-ray diffraction of the crystals obtained and crystals of before mixing operation were each measured under the following measurement conditions.
D8 DISCOVER with GADDS manufactured by Bruker AXS Ltd.
Tube voltage: 40 kV Tube current: 200 mA Scanning range (2θ): 5 to 40° Collimator: 0.3 mm double slit
The powder X-ray diffraction pattern of Anhydrous form II before and after mixing operation is shown in FIG. 3, and the powder X-ray diffraction pattern of Crystal form IV is shown in FIG. 4. The mixing operation of Anhydrous form II in the presence of water was performed twice.

AMPA receptor = conditions: see Patent Document 1 (WO/JP01/96308); cited from earlier work
[2] = Chargeability (static potential of the powder after stirring); type: physicochemical; conditions: about 1 g stirred for 30 minutes in weighing bottle with fluoroplastic-coated stirring bar
Experimental: About 1 g of respective compounds is weighed into a weighing bottle (diameter of 35 mm). A stirring bar [fluoroplastic (tetrafluoroethylene resin) coating; 20 mm] is placed in the bottle and after the lid is in place, the powders are stirred for 30 minutes. The lid is opened at the same time that stirring is stopped; and the static potential of the powder is measured using a static potential measuring instrument.
STATIRON-DZ3 manufactured by Shishido Electrostatic, Ltd.

| Structure (SMILES) | change of crystal form in mixing operation (physical stability) [1] | antagonistic action against AMPA receptor (AMPA receptor) | static potential of the powder (chargeability) [2] |
| --- | --- | --- | --- |
| N#Cc1ccccc1-c1cc(-c2ccccn2)cn(-c2ccccc2)c1=O [Example 1, 3-(2-Cyanophenyl)-5-(2-pyridyl)-1-phenyl-1,2-dihydopyridin-2-one] | do not change their crystal forms | – | – |
| N#Cc1ccccc1-c1cc(-c2ccccn2)cn(-c2ccccc2)c1=O [compound (1), 3-(2-cyanophenyl)-5-(2-pyridyl)-1-phenyl-1,2-dihydropyridin-2-one] | – | significant antagonistic action | – |
| N#Cc1ccccc1-c1cc(-c2ccccn2)cn(-c2ccccc2)c1=O [Reference Example A1, 3-(2-cyanophenyl)-5-(2-pyridyl)-1-phenyl-1,2-dihydropyridin-2-one] | change their crystal forms | – | 70-100 V |
